According to patent publication US8415376B2, “Inhibitors of PI3 kinase” (Amgen Inc., priority 2008, dated 2013):

How the values were obtained:
PI3Kα = target: T1, PI3Kα (Homo sapiens, UniProt P42336); test: In vitro PI3K AlphaScreen assay; assay type: biochemical; conditions: average if run more than once
T1 construct: Full length p110 subunits of PI3K α, β and δ, N-terminally labeled with polyHis tag; polyHis (N); made in house; host or cells: Sf9 insect cells (baculovirus)
Experimental: In Vitro PI3K Alphascreen® Assay
The PI3K AlphaScreen® assay (PerkinElmer, Waltham, Mass.) measures the activity of a panel of four phosphoinositide 3-kinases: PI3Kα, PI3Kβ, PI3Kγ, and PI3Kδ. Each of these enzymes phosphorylates the 3′-hydroxyl group on phosphatidylinositiol (4,5)-bisphosphate (PIP2) to produce phosphatidylinositol (3,4,5)-trisphosphate (PIP3). This phosphorylation activity is measured using a GST-tagged PIP3 binding protein (Echelon Biosciences, Salt Lake City, Utah), an anti-GST-tagged Acceptor bead, and streptavidin-Donor bead. […] In the absence of this interaction, proximity of the Donor and Acceptor beads is decreased, producing a loss of luminescent signal which is inversely proportional to PI3K activity.
The enzyme reaction buffer is made using sterile water (Baxter, Deerfield, Ill.) and 50 mM Tris HCl pH 7, 14 mM MgCl2, 2 mM sodium cholate, and 100 mM NaCl. 2 mM DTT is added fresh the day of the experiment. The AlphaScreen® reaction buffer is made using sterile water and 10 mM Tris HCl pH 7.5, 150 mM NaCl, 0.10% Tween 20, and 30 mM EDTA. 1 mM DTT is added fresh the day of the experiment.
The source plates for this assay are 384-well Greiner clear polypropylene plates containing test compounds at 5mM and diluted 1:2 over 22 points. […] Source plates are replicated into 384-well Optiplates (PerkinElmer, Waltham, Mass.), 0.5 μL/well, to make assay-ready plates.
The different PI3K isoforms are each diluted in enzyme reaction buffer to 2× working solutions. […] Two different 2× substrate solutions are made in enzyme reaction buffer. In one solution, PI(4,5)P2 (Echelon Biosciences, Salt Lake City, Utah) is diluted to 10 μM and ATP is diluted to 20 μM. This solution is used in the assays testing PI3Kα and PI3Kβ. In a second solution, PI(4,5)P2 is diluted to 10 μM and ATP is diluted to 8 μM. This solution used in the assays testing PI3Kγ and PI3Kδ.
The AlphaScreen® reaction solutions are made using beads from the anti-GST AlphaScreen® kit (PerkinElmer, Waltham, Mass.). Two solutions are made in Alphascreen reaction buffer to 4× working concentrations. In one solution, biotinylated-IP4 (Echelon Biosciences, Salt Lake City, Utah) is diluted to 40 nM and streptavadin-Donor Beads are diluted to 80 μg/mL. In the second solution, PIP3-binding protein (Echelon Biosciences, Salt Lake City, Utah) is diluted to 40 nM and anti-GST-Acceptor Beads are diluted to 80 μg/mL. 10 μL/well of enzyme reaction buffer is added to Column 24 of the assay ready plates in place of enzyme. This is done for plates in the PI3Kα, β, and 67 assays.
Using a 384-well dispensing Multidrop (Titertek, Huntsville, Ala.), 10 μL/well of 2× enzyme (PI3Kα, β, δ) is added to Columns 1-23 of the appropriate assay ready plates (for PI3Kγ 10 μL is added to Columns 1-24). 10 μL/well of the appropriate substrate solution (the solution with 20 μM ATP for PI3Kα and β assays, and the solution with 8 μM ATP for PI3Kγ and δ assays) is then added to Columns 1-24 of the plates. Plates are then incubated at room temperature for 20 minutes.
In the dark, 10 μL/well of the Donor Bead solution is added to Columns 1-24 of the plates to quench the enzyme reaction. The plates are incubated at room temperature for 30 minutes. Still in the dark, 10 μL/well of the Acceptor Bead solution is also added to Columns 1-24 of the plates. The plates are then incubated in the dark for 1.5 hours. The plates are read on an Envision Multilabel Plate Reader (PerkinElmer, Waltham, Mass.) with a 680 nm excitation filter and a 520-620 nm emission filter.

mTOR = target: T2, mTOR (Homo sapiens, UniProt P42345); test: In vitro mTOR assay (Lanthascreen); assay type: biochemical; conditions: average if run more than once
T2 construct: purchased Invitrogen (Carlsbad, Calif.)
T2 sequence (P42345 1360-2549 limits assumed): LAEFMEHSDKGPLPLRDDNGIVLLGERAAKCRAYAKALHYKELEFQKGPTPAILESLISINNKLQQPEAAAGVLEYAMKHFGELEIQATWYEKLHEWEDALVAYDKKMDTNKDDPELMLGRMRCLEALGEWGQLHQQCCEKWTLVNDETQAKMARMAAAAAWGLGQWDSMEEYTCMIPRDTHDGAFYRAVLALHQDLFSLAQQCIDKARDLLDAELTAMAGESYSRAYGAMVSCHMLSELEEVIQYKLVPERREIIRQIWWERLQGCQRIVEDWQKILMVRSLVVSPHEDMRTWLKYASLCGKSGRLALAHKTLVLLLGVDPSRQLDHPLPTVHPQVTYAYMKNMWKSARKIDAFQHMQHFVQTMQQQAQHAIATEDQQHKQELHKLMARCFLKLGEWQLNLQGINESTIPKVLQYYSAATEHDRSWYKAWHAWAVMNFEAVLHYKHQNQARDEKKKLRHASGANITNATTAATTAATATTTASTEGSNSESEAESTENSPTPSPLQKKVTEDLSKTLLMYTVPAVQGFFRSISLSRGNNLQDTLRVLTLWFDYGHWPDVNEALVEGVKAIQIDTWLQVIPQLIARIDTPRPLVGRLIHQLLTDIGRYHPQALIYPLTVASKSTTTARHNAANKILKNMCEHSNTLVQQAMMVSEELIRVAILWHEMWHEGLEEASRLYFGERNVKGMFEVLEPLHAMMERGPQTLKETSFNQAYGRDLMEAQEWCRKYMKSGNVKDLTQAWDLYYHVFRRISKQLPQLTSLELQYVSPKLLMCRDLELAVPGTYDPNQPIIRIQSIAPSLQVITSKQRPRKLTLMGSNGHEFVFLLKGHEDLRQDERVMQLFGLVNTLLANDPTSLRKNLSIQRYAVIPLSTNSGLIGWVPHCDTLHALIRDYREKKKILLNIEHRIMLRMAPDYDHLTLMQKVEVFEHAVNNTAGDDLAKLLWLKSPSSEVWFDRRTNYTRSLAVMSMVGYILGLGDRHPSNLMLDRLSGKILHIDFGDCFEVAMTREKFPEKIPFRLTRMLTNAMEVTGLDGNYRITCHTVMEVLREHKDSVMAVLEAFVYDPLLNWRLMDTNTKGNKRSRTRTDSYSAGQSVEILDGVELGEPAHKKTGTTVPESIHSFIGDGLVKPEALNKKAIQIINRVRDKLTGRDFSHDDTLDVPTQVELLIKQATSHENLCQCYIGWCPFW
How it was run: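 mTOR activity measured by TR-FRET as Thr46 phosphorylation of GFP-4E-BP1, detected with Tb-labelled anti-phospho-4E-BP1 [T46] antibody after EDTA stop. Final 50 ng/mL mTOR, 400 nM GFP-4E-BP1, 7 μM ATP in HEPES pH 7.5 with 10 mM MnCl2; 1 h, room temperature. 10-point 1:3 compound series.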

[1] = tested on: phosphorylation of Akt at Serine 473; test: pAkt AlphaScreen (U87 cell); assay type: cell-based; conditions: Homo sapiens, U-87 MG; U87 MG cells, pAkt Ser473; average
How it was run: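 U87 MG cells (5K per well, plated overnight) were exposed to compound for two hours at 37° C, 25 μM down to 11.9 pM in 0.5% DMSO. After lysis, phospho-Akt Ser473 was measured by SureFire AlphaScreen following overnight room-temperature incubation, and IC50 was derived from percent of control.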

T1 sequence (P42336 whole entry): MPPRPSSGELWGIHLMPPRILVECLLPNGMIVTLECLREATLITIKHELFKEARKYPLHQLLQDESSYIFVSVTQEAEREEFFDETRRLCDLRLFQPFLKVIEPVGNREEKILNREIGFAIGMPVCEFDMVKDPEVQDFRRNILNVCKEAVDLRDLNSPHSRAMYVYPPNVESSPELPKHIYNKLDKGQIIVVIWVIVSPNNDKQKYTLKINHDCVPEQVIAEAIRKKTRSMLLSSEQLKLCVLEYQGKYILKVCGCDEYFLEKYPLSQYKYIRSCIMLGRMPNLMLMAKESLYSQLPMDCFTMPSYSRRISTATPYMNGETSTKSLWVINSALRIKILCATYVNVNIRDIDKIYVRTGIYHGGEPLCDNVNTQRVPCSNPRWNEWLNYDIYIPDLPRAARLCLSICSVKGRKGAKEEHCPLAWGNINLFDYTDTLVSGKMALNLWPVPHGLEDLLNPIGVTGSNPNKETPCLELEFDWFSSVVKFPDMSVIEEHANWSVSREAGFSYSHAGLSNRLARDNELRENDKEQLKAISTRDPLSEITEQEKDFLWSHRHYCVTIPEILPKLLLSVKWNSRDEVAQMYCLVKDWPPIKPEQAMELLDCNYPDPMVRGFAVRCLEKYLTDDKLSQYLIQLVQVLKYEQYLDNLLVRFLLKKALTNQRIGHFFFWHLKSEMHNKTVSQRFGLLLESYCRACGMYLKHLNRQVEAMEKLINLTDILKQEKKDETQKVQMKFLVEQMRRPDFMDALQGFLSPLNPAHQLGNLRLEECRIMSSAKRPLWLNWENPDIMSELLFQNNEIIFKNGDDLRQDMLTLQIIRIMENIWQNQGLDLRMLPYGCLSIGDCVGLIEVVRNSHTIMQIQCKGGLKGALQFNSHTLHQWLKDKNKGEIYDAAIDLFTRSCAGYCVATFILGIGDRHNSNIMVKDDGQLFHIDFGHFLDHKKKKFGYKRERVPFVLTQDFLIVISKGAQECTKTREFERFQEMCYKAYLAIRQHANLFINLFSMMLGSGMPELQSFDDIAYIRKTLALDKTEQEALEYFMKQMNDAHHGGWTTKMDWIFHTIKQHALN
T1 sequence (P27986 whole entry partner): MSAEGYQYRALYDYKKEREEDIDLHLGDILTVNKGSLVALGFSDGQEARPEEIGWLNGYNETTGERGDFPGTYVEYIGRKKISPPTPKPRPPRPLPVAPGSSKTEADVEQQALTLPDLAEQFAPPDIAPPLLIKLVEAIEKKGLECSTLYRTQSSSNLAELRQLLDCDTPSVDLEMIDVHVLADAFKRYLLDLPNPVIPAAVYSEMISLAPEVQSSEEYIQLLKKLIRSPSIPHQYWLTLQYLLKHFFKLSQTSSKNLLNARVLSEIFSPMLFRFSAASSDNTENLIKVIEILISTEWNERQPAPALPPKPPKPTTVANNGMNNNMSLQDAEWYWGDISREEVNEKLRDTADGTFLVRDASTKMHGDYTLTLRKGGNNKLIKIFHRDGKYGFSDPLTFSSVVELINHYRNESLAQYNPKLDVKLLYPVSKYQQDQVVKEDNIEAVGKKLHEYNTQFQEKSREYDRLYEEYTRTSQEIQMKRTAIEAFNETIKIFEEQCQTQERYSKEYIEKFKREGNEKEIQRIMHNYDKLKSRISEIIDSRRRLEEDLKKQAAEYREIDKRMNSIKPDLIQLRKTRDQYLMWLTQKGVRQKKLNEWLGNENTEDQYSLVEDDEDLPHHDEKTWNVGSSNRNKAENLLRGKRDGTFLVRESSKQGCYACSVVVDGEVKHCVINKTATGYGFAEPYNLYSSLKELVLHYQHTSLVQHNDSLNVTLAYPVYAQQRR

Row | SMILES | Ki (PI3Kα) [µM] | IC50 (mTOR) [µM] | IC50 [1] [µM]
1 | CS(=O)(=O)Nc1cc(-c2ccc3nccc(-c4cccnc4)c3c2)cnc1-c1cccnc1 [Example 117, N-(5-(4-(Pyridin-3-yl)quinolin-6-yl)-2,3′-bipyridin-3-yl)methanesulfonamide] | 0.0053 | 0.0015 | 0.255
2 | CS(=O)(=O)Nc1cc(-c2ccc3nccc(-c4ccncc4)c3c2)cnc1Cl [Example 118, N-(2-Chloro-5-(4-(pyridin-4-yl)quinolin-6-yl)pyridin-3-yl)methanesulfonamide] | 0.0011 | 0.0012 | 0.0127
3 | COc1ncc(-c2ccc3nccc(N4CCOCC4)c3c2)cc1NS(C)(=O)=O [Example 119, N-(2-Methoxy-5-(4-morpholinoquinolin-6-yl)pyridin-3-yl)methanesulfonamide] | 0.0047 | 0.0176 | 0.0448
4 | COc1ncc(-c2ccc3nccc(-c4ccncc4)c3c2)cc1NS(C)(=O)=O [Example 120, N-(2-Methoxy-5-(4-(pyridin-4-yl)quinolin-6-yl)pyridin-3-yl)methanesulfonamide] | 0.0035 | 0.0048 | 0.0147
5 | CN(C)S(=O)(=O)Nc1cc(-c2ccc3nccc(N4CCOCC4)c3c2)cnc1Cl [Example 122, N′-(2-Chloro-5-(4-(4-morpholinyl)-6-quinolinyl)-3-pyridinyl)-N,N-dimethylsulfamide] | 0.0065 | 0.0182 | 0.0163
6 | COCCN(C)S(=O)(=O)Nc1cc(-c2ccc3nccc(N4CCOCC4)c3c2)cnc1Cl [Example 123, N′-(2-Chloro-5-(4-(4-morpholinyl)-6-quinolinyl)-3-pyridinyl)-N-(2-methoxyethyl)-N-methylsulfamide] | 0.0054 | 0.0169 | 0.037
7 | O=S(=O)(Nc1cc(-c2ccc3nccc(N4CCOCC4)c3c2)cnc1Cl)N1CCOCC1 [Example 124, N-(2-chloro-5-(4-morpholinoquinolin-6-yl)pyridin-3-yl)morpholine-4-sulfonamide] | 0.0046 | 0.0143 | 0.0399
8 | CN(C)S(=O)(=O)Nc1cc(-c2ccc3nccc(Cl)c3c2)cnc1Cl [Example 125, N′-(2-chloro-5-(4-chloro-6-quinolinyl)-3-pyridinyl)-N,N-dimethylsulfamide] | 0.0033 | 0.0077 | 0.723
9 | COCCN(C)c1ccnc2ccc(-c3cnc(Cl)c(NS(=O)(=O)N(C)CCOC)c3)cc12 [Example 126, N′-(2-chloro-5-(4-((2-methoxyethyl)(methyl)amino)-6-quinolinyl)-3-pyridinyl)-N-(2-methoxyethyl)-N-methylsulfamide] | 0.0801 | 0.134 | 0.669
10 | O=S(=O)(Nc1cc(-c2ccc3c(c2)OCCO3)cnc1Cl)c1ccc(F)cc1 [Example 128, N-(2-Chloro-5-(2,3-dihydrobenzo[b][1,4]dioxin-6-yl)pyridin-3-yl)-4-fluorobenzenesulfonamide] | 0.0333 | 0.0527 | 20.4
11 | CN(C)S(=O)(=O)Nc1cc(-c2ccc3ncc(=O)n(-c4ccccc4)c3c2)cnc1Cl [Example 130, N-(2-chloro-5-(3-oxo-4-phenyl-3,4-dihydroquinoxalin-6-yl)pyridin-3-yl)dimethylaminosulfonamide] | 0.0025 | 0.0012 | 0.0087
12 | COCCN(C)S(=O)(=O)Nc1cc(-c2ccc3ncc(=O)n(-c4ccccc4)c3c2)cnc1Cl [Example 131, N-(2-chloro-5-(3-oxo-4-phenyl-3,4-dihydroquinoxalin-6-yl)pyridin-3-yl) 2-methoxy-N-methylethanaminosulfonamide] | 0.0032 | 0.0076 | 0.0092
13 | COc1ccc(-n2c(=O)cnc3ccc(-c4cnc(Cl)c(NS(=O)(=O)N(C)C)c4)cc32)cn1 [Example 132, N-(2-chloro-5-(4-(6-methoxypyridin-3-yl)-3-oxo-3,4-dihydroquinoxalin-6-yl)pyridin-3-yl)dimethylaminosulfonamide] | 0.0022 | 0.0023 | 0.0408
14 | CN(C)S(=O)(=O)Nc1cc(-c2ccc3ncc(=O)n(-c4cccc(C(F)(F)F)c4)c3c2)cnc1Cl [Example 133, N-(2-chloro-5-(3-oxo-4-(3-(trifluoromethyl)phenyl)-3,4-dihydroquinoxalin-6-yl)pyridin-3-yl)dimethylaminosulfonamide] | 0.0023 | 0.0005 | 0.0094
15 | COCCN(C)S(=O)(=O)Nc1cc(-c2ccc3ncc(=O)n(-c4cccc(C(F)(F)F)c4)c3c2)cnc1Cl [Example 134, N-(2-Chloro-5-(3-oxo-4-(3-(trifluoromethyl)phenyl)-3,4-dihydroquinoxalin-6-yl)pyridin-3-yl) 2-methoxy-N-methylethanamino sulfonamide] | 0.0185 | 0.0042 | 0.0283
16 | CN(C)S(=O)(=O)Nc1cc(N2CCc3nccc(N4CCOCC4)c3C2)cnc1Cl [Example 136, N′-(2-Chloro-5-(4-(4-morpholinyl)-7,8-dihydro-1,6-naphthyridin-6(5H)-yl)-3-pyridinyl)-N,N-dimethylsulfamide] | 0.111 | 0.065 | 0.289
